Several values for one entry are separate records, joined by “and”; a condition that tells them apart may be missing. Equal values may be shown once.
System: 168753-222-R-J1-PDC complex spheroid viability
Test: Anticancer human tumor 168753-222-R-J1-PDC patient-derived bladder carcinoma cell line growth inhibition [CLK]
Settings: for viability, T/C: stronger effect = lower value
Summary of the method: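 Patient-derived tumor cells grown as complex spheroids with HUVEC endothelial cells and mesenchymal stem cells, treated with drug combinations. Concentrations descend in half-log steps from near clinical Cmax, or from 10 microM if Cmax unknown.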

[1] = curve of first compound, second compound 0.0316 µM
[2] = curve of first compound, second compound 0.1 µM
[3] = curve of first compound, second compound 0.316 µM
[4] = curve of first compound, second compound 1 µM
[5] = curve of first compound, second compound 3.16 µM
[6] = curve of first compound, second compound 10 µM
[7] = second compound 0.0316 µM, first compound 0.0316 µM
[8] = second compound 0.0316 µM, first compound 0.1 µM
[9] = second compound 0.0316 µM, first compound 0.316 µM
[10] = second compound 0.0316 µM, first compound 1 µM
[11] = second compound 0.0316 µM, first compound 3.16 µM
[12] = second compound 0.0316 µM, first compound 10 µM
[13] = second compound 0.1 µM, first compound 0.0316 µM
[14] = second compound 0.1 µM, first compound 0.1 µM
[15] = second compound 0.1 µM, first compound 0.316 µM
[16] = second compound 0.1 µM, first compound 1 µM
[17] = second compound 0.1 µM, first compound 3.16 µM
[18] = second compound 0.1 µM, first compound 10 µM
[19] = second compound 0.316 µM, first compound 0.0316 µM
[20] = second compound 0.316 µM, first compound 0.1 µM
[21] = second compound 0.316 µM, first compound 0.316 µM
[22] = second compound 0.316 µM, first compound 1 µM
[23] = second compound 0.316 µM, first compound 3.16 µM
[24] = second compound 0.316 µM, first compound 10 µM
[25] = second compound 1 µM, first compound 0.0316 µM
[26] = second compound 1 µM, first compound 0.1 µM
[27] = second compound 1 µM, first compound 0.316 µM
[28] = second compound 1 µM, first compound 1 µM
[29] = second compound 1 µM, first compound 3.16 µM
[30] = second compound 1 µM, first compound 10 µM
[31] = second compound 3.16 µM, first compound 0.0316 µM
[32] = second compound 3.16 µM, first compound 0.1 µM
[33] = second compound 3.16 µM, first compound 0.316 µM
[34] = second compound 3.16 µM, first compound 1 µM
[35] = second compound 3.16 µM, first compound 3.16 µM
[36] = second compound 3.16 µM, first compound 10 µM
[37] = second compound 10 µM, first compound 0.0316 µM
[38] = second compound 10 µM, first compound 0.1 µM
[39] = second compound 10 µM, first compound 0.316 µM
[40] = second compound 10 µM, first compound 1 µM
[41] = second compound 10 µM, first compound 3.16 µM
[42] = second compound 10 µM, first compound 10 µM
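Also: viability measured after seven days of drug exposure.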
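For viability, T/C in this document: luminescence signal used as surrogate for viable cell amount; 100% = DMSO vehicle control wells.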

In the case of O=C(c1cc(Cc2n[nH]c(=O)c3ccccc23)ccc1F)N1CCN(C(=O)C2CC2)CC1, the viability, T/C (compound 0.0316 µM) is reported as 76.1% and 102%, the viability, T/C (compound 0.1 µM) is reported as 97.4% and 102% and the viability, T/C (compound 0.316 µM) is reported as 93.7% and 95.2%. The viability, T/C (compound 1 µM) was 62% and 95.9%, the viability, T/C (compound 3.16 µM) was 46.3% and 107% and the viability, T/C (compound 10 µM) was 70.3% and 93.2%. For the same molecule, the IC50 (curve of compound) was over 10000 nM.

In the case of COc1ccc([C@@H](O)c2cc(-c3ncnc4cc(N5CCOCC5)ccc34)c(F)cc2Cl)nn1 + CNC(=O)c1ccc(Nc2nc(OC3CCCC3)c3c(-c4ccc5nc(C)oc5c4)c[nH]c3n2)c(OC)c1, the IC50 [1] is reported as 1620 nM, the IC50 [2] is reported as 1690 nM and the IC50 [3] is reported as 565 nM. It also gave an IC50 [4] of under 31.6 nM, an IC50 [5] of under 31.6 nM and an IC50 [6] of under 31.6 nM. For the same molecule, the viability, T/C [7] was 107%, the viability, T/C [8] was 94% and the viability, T/C [9] was 88.3%. The viability, T/C [10] was 67.8%, the viability, T/C [11] was 27% and the viability, T/C [12] was 15.9%. The viability, T/C [13] was 91.1%, the viability, T/C [14] was 94.5% and the viability, T/C [15] was 82.7%. The viability, T/C [16] was 69.4%, the viability, T/C [17] was 27.9% and the viability, T/C [18] was 16.8%. It also gave a viability, T/C [19] of 75.6%, a viability, T/C [20] of 78.9% and a viability, T/C [21] of 67.3%. For the same molecule, the viability, T/C [22] was 32.5%, the viability, T/C [23] was 20.7% and the viability, T/C [24] was 13.9%. It also gave a viability, T/C [25] of 41.9%, a viability, T/C [26] of 27.2% and a viability, T/C [27] of 26.3%. It also gave a viability, T/C [28] of 18.4%, a viability, T/C [29] of 16.5% and a viability, T/C [30] of 13.5%. It also gave a viability, T/C [31] of 25.3%, a viability, T/C [32] of 23.7% and a viability, T/C [33] of 21.1%. For the same molecule, the viability, T/C [34] was 16.6%, the viability, T/C [35] was 17.8% and the viability, T/C [36] was 15.8%. The viability, T/C [37] was 18.5%, the viability, T/C [38] was 21.5% and the viability, T/C [39] was 20.8%. It also gave a viability, T/C [40] of 15.9%, a viability, T/C [41] of 15.4% and a viability, T/C [42] of 11.3%.

In the case of Nc1ccccc1NC(=O)c1ccc(CNC(=O)OCc2cccnc2)cc1 + CN1CCN(c2cc(C(=O)Nc3cc4cc(-c5cnn(C)c5)ccc4cn3)ccn2)CC1, the IC50 [1] is reported as 554 nM, the IC50 [2] is reported as under 31.6 nM and the IC50 [3] is reported as under 31.6 nM. It also gave an IC50 [4] of under 31.6 nM, an IC50 [5] of under 31.6 nM and an IC50 [6] of under 31.6 nM. The viability, T/C [7] was 96.5%, the viability, T/C [8] was 58.7% and the viability, T/C [9] was 54.6%. For the same molecule, the viability, T/C [10] was 54%, the viability, T/C [11] was 24.3% and the viability, T/C [12] was 7.33%. The viability, T/C [13] was 50%, the viability, T/C [14] was 41.3% and the viability, T/C [15] was 38.2%. The viability, T/C [16] was 43.9%, the viability, T/C [17] was 22.6% and the viability, T/C [18] was 0.13%. The viability, T/C [19] was 9.09%, the viability, T/C [20] was 8.55% and the viability, T/C [21] was 7.31%. For the same molecule, the viability, T/C [22] was 7.09%, the viability, T/C [23] was 0.22% and the viability, T/C [24] was 0.07%. It also gave a viability, T/C [25] of 0.13%, a viability, T/C [26] of 0.23% and a viability, T/C [27] of 0.08%. The viability, T/C [28] was 0.05%, the viability, T/C [29] was 0.16% and the viability, T/C [30] was 0.89%. For the same molecule, the viability, T/C [31] was 0.79%, the viability, T/C [32] was 0.08% and the viability, T/C [33] was 0.09%. It also gave a viability, T/C [34] of 0.06%, a viability, T/C [35] of 0.71% and a viability, T/C [36] of 0.95%. The viability, T/C [37] was 0.06%, the viability, T/C [38] was 0.23% and the viability, T/C [39] was 0.32%. It also gave a viability, T/C [40] of 0.1%, a viability, T/C [41] of 0.24% and a viability, T/C [42] of 1.08%.

COc1cccc2c1C(=O)c1c(O)c3c(c(O)c1C2=O)CC(O)(C(=O)CO)CC3OC1CC(N)C(O)C(C)O1 (stereo not given) + CNC(=O)c1ccc(Nc2nc(OC3CCCC3)c3c(-c4ccc5nc(C)oc5c4)c[nH]c3n2)c(OC)c1 was tested, and the IC50 [1] was 291 nM, the IC50 [2] was 266 nM and the IC50 [3] was 141 nM. The IC50 [4] was under 31.6 nM, the IC50 [5] was under 31.6 nM and the IC50 [6] was under 31.6 nM. The viability, T/C [7] was 83.8%, the viability, T/C [8] was 73.1% and the viability, T/C [9] was 50%. For the same molecule, the viability, T/C [10] was 14.6%, the viability, T/C [11] was 13.7% and the viability, T/C [12] was 0.12%. The viability, T/C [13] was 94.5%, the viability, T/C [14] was 72.3% and the viability, T/C [15] was 49.8%. The viability, T/C [16] was 14.9%, the viability, T/C [17] was 15.6% and the viability, T/C [18] was 0.1%. For the same molecule, the viability, T/C [19] was 71.9%, the viability, T/C [20] was 57.7% and the viability, T/C [21] was 33.1%. It also gave a viability, T/C [22] of 14.1%, a viability, T/C [23] of 8% and a viability, T/C [24] of 0.12%. It also gave a viability, T/C [25] of 30.2%, a viability, T/C [26] of 18.5% and a viability, T/C [27] of 15.2%. It also gave a viability, T/C [28] of 14.1%, a viability, T/C [29] of 6.77% and a viability, T/C [30] of 0.13%. The viability, T/C [31] was 18.4%, the viability, T/C [32] was 17.9% and the viability, T/C [33] was 13.3%. It also gave a viability, T/C [34] of 12.1%, a viability, T/C [35] of 2.89% and a viability, T/C [36] of 0.14%. It also gave a viability, T/C [37] of 16%, a viability, T/C [38] of 16% and a viability, T/C [39] of 12.1%. For the same molecule, the viability, T/C [40] was 11.2%, the viability, T/C [41] was 0.71% and the viability, T/C [42] was 0.24%.

For Nc1ccccc1NC(=O)c1ccc(CNC(=O)OCc2cccnc2)cc1, the viability, T/C (compound 0.0316 µM) was 62.3% and 96.6%, the viability, T/C (compound 0.1 µM) was 73.6% and 91.6% and the viability, T/C (compound 0.316 µM) was 60.1% and 85.8%. The viability, T/C (compound 1 µM) was 37.7% and 86.4%, the viability, T/C (compound 3.16 µM) was 38.6% and 60.3% and the viability, T/C (compound 10 µM) was 11.8% and 22.8%. The IC50 (curve of compound) was 763 nM and 4400 nM.

From PubChem BioAssay AID2060626 (Molecular Pharmacology Branch, DTP, NCI, 2025)
